Earlier results as cited in publication PMC3518266 (Chemistry & biology, 2010).

Target: hevamine
Conditions: competitive inhibition of hevamine; ref Vaaje-Kolstad et al., 2004; cited from earlier work

CC(=O)N[C@H]1[C@H](O[C@H]2[C@@H](O)[C@@H](NC(C)=O)[C@H](O[C@H]3[C@H](O)[C@H]4N=C(N(C)C)O[C@H]4[C@@H]3CO)O[C@@H]2CO)O[C@H](CO)[C@@H](O)[C@H]1O [allosamidin]
Ki: 3.1 µM
